This is an account of results in ChEMBL document CHEMBL4842376, “Design, synthesis and biological evaluation of novel hybrids targeting mTOR and HDACs for potential treatment of hepatocellular carcinoma” (Eur J Med Chem, 2021).

Assay [1] has as its target T1, Protein deacetylase HDAC6 (Homo sapiens) (UniProt Q9UBN7).
T1 sequence (whole entry): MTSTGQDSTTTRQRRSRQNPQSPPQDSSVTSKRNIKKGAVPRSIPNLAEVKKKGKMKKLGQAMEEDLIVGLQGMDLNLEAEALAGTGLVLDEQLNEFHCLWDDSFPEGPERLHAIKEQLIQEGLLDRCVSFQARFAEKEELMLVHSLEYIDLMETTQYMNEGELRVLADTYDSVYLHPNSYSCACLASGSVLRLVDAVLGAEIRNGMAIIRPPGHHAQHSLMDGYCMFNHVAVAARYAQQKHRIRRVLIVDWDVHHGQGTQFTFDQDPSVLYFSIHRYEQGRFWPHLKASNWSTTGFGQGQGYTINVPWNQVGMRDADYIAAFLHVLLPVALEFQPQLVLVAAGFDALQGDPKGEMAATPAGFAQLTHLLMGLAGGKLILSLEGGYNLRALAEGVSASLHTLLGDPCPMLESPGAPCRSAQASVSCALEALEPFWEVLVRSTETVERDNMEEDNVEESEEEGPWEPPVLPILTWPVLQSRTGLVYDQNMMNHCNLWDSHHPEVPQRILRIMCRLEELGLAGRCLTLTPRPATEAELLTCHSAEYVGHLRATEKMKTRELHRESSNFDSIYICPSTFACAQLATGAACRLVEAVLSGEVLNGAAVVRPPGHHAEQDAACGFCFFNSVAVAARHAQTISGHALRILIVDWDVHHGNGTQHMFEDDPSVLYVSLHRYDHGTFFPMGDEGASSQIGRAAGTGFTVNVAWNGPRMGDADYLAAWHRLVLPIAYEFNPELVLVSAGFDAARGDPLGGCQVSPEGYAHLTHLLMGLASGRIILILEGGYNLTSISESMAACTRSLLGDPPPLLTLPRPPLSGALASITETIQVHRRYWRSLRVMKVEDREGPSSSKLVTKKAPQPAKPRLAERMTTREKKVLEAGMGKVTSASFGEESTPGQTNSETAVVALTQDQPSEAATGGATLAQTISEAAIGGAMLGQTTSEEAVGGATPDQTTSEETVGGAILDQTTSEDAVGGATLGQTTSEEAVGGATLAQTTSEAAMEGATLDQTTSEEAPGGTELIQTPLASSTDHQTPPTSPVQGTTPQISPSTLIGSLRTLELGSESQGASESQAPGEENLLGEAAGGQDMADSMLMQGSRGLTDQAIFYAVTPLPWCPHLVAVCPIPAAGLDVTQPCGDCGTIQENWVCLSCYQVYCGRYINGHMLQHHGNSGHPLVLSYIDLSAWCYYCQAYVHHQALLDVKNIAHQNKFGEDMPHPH
As to the kind of experiment: Inhibition of HDAC6 (unknown origin) at 1 uM using Ac-peptide as a substrate pretreated for 15 mins followed by substrate addition relative to control.

The test system of assay [2] is HeLa. As to the kind of experiment: cells. Conditions: Homo sapiens, 72 h. Type of assay: functional, cell-based.
Description: Antiproliferative activity against human HeLa cells assessed as inhibition of cell growth measured after 72 hrs by MTT assay
Assay [3] concerns HCT-116. In words: cells. Type of assay: functional, cell-based. Conditions: Homo sapiens, HCT-116, 72 h.
Description: Antiproliferative activity against human HCT-116 cells assessed as inhibition of cell growth measured after 72 hrs by MTT assay
Assay [4] concerns CNE-2. In words: cells. Type of assay: functional, cell-based. To be noted: Homo sapiens, CNE-2, 72 h.
Description: Antiproliferative activity against human CNE-2 cells assessed as inhibition of cell growth measured after 72 hrs by MTT assay
The subject of assay [5] is Hep 3B2. As to the kind of experiment: cells. Format: functional, cell-based. To be noted: Homo sapiens, Hep3B, 72 h.
Description: Antiproliferative activity against human Hep3B cells assessed as inhibition of cell growth measured after 72 hrs by MTT assay
The target of assay [6] is Serine/threonine-protein kinase mTOR (Homo sapiens, UniProt P42345). In words: Inhibition of mTOR (unknown origin) at 1 uM using U-Light-4E-BP1 peptide as a substrate in the presence of ATP incubated for 30 mins by Lance ultra assay relative to control.
Assay [7] relates to SK-HEP1. In words: cells. Type of assay: functional, cell-based. Conditions: Homo sapiens, SK-HEP1, 72 h.
Description: Antiproliferative activity against human SK-HEP1 cells assessed as inhibition of cell growth measured after 72 hrs by MTT assay
In assay [8] the test system is HepG2. As to the kind of experiment: Antiproliferative activity against human HepG2 cells assessed as inhibition of cell growth measured after 72 hrs by MTT assay. Type of assay: functional, cell-based. To be noted: HepG2, 72 h. On the technique in general: Tetrazolium assays rely on reduction of a dye to a coloured formazan, in cell work by metabolically active cells.

For assay [9], the system named is A549. As to the kind of experiment: cells. Format: functional, cell-based. Conditions: Homo sapiens, A549, 72 h.
Description: Antiproliferative activity against human A549 cells assessed as inhibition of cell growth measured after 72 hrs by MTT assay
Assay [10] deals with SNU-423. In words: Antiproliferative activity against human SNU-423 cells assessed as inhibition of cell growth measured after 72 hrs by MTT assay. Type of assay: functional, cell-based. Conditions: SNU-423, 72 h.
Assay [11] has as its system Huh-7. As to the kind of experiment: cells. Conditions: Homo sapiens, Huh-7, 72 h. Format: functional, cell-based.
Description: Antiproliferative activity against human Huh-7 cells assessed as inhibition of cell growth measured after 72 hrs by MTT assay
Assay [12] relates to Bel-7402. As to the kind of experiment: Antiproliferative activity against human Bel-7402 cells assessed as inhibition of cell growth measured after 72 hrs by MTT assay. Conditions: Bel-7402, 72 h. Type of assay: functional, cell-based.
The test system of assay [13] is PLC-PRF-5. As to the kind of experiment: Antiproliferative activity against human PLC-PRF-5 cells assessed as inhibition of cell growth measured after 72 hrs by MTT assay. Format: functional, cell-based. To be noted: PLC-PRF-5, 72 h.
Assay [14] has as its system MDA-MB-231. In words: cells. Format: functional, cell-based. To be noted: Homo sapiens, MDA-MB-231, 72 h.
Description: Antiproliferative activity against human MDA-MB-231 cells assessed as inhibition of cell growth measured after 72 hrs by MTT assay
Assay [15] concerns MCF7. In words: cells. Format: functional, cell-based. To be noted: Homo sapiens, MCF7, 72 h.
Description: Antiproliferative activity against human MCF7 cells assessed as inhibition of cell growth measured after 72 hrs by MTT assay

Regarding `Nc1ncnc2c1c(-c1cnc3[nH]ccc3c1)nn2CCCCCCCC(=O)NO`, the inhibition – broadly, how much of the control response was suppressed – in [1] came to 100%; in assay [6], 98.7%. Further, the half-inhibitory concentration (IC50) (in general, the concentration that gives 50% inhibition) was found to be 29.1 µM in assay [2]; 6.76 µM in assay [3]; 8.99 µM in [4]; 16.3 µM in [5]; 3.95 µM in [7]; 5.63 µM in assay [8]. Besides, the IC50 in [9] turned out to be 51 µM; in assay [10], 5.4 µM; in [11], 23.5 µM; in assay [12], 17.4 µM; in assay [13], 35.9 µM; in assay [14] it was 15.8 µM. For the same compound, the concentration for half-maximal inhibition (IC50) in assay [15] is 7.57 µM.
For the compound `Nc1nc2cc(-c3nn(CCCCCCCCC(=O)NO)c4ncnc(N)c34)ccc2o1`, the inhibition in assay [1] amounted to 99%; in assay [6] it was 99.3%. Further, the half-inhibitory concentration (IC50) is 10.2 µM in assay [2]; 2.98 µM in assay [3]; 3.24 µM in [4]; 8.89 µM in [5]; > 100 µM in [7]; 2.61 µM in assay [8]. The IC50 in assay [9] is 13.2 µM; in assay [10] it was 4.94 µM; in [11] it was 1.47 µM; in [12], > 100 µM; in [13], 24 µM; in assay [14], 30.3 µM. Also, in assay [15], half-maximal inhibition (IC50) was put at 42.1 µM.
In the case of `Nc1ncnc2c1c(-c1cnc3[nH]ccc3c1)nn2CCCCC(=O)NO`, the half-maximal inhibitory concentration (IC50) is > 150 µM in assay [2]; > 150 µM in [3]; > 150 µM in assay [4]; 36.6 µM in [8]; > 150 µM in [9]; > 50 µM in [14]. Further, the IC50 in [15] is > 150 µM.
Turning to `Nc1ncnc2c1c(-c1cnc3[nH]ccc3c1)nn2CCC(=O)NO`, the IC50 in assay [3], in [4], in assay [8], in assay [9], in assay [14] and in assay [15] was > 150 µM in each case.
`Nc1nc2cc(-c3nn(CCC(=O)NO)c4ncnc(N)c34)ccc2o1`: the IC50 in assay [2] is > 150 µM; in assay [3] it was > 100 µM; in assay [4], > 150 µM; in assay [8], > 150 µM; in assay [9] it was > 150 µM; in assay [14] it was > 50 µM. Besides, the half-inhibitory concentration (IC50) in assay [15] was > 100 µM.
For `Nc1ncnc2c1c(-c1cnc3[nH]ccc3c1)nn2CCCCCCC(=O)NO`, the inhibition in assay [1] amounted to 99.1%; in [6] it was 98.7%. The IC50 came out at 22 µM in assay [2]; 9.86 µM in assay [3]; 19.5 µM in [4]; 26.2 µM in assay [5]; 14.7 µM in assay [7]; 10.3 µM in [8]. The IC50 in assay [9] is 50 µM; in assay [10], 7.5 µM; in [11], 50.9 µM; in [12], 30.8 µM; in assay [13], > 50 µM; in [14], 37.7 µM. This compound yielded an IC50 in assay [15] of 19.8 µM.
Turning to `Nc1ncnc2c1c(-c1cnc3[nH]ccc3c1)nn2CC(=O)NO`, the half-inhibitory concentration (IC50) in assay [3], in [4], in assay [8], in [9], in [14] and in assay [15] was > 150 µM each time.
On to `Nc1nc2cc(-c3nn(CCCC(=O)NO)c4ncnc(N)c34)ccc2o1`, for which the concentration for half-maximal inhibition (IC50) in assay [2] is > 150 µM; in [3], 19.6 µM; in assay [4], > 50 µM; in assay [8], > 50 µM; in [9] it was > 100 µM; in [14] it was 19.5 µM. The IC50 in assay [15] is > 50 µM.
For the compound `Nc1nc2cc(-c3nn(CCCCCCCCCC(=O)NO)c4ncnc(N)c34)ccc2o1`, the inhibition in assay [1] is 98.2%; in [6], 92.4%. The half-inhibitory concentration (IC50) in [2] is > 50 µM; in assay [3], 23.1 µM; in assay [4], 36.8 µM; in [5], 28.8 µM; in [7] it was 14.1 µM; in [8], 28.6 µM. Further, the concentration for half-maximal inhibition (IC50) was > 50 µM in [9]; > 50 µM in assay [10]; 41.2 µM in [11]; > 50 µM in assay [12]; > 100 µM in assay [13]; > 50 µM in assay [14]. For the same compound, the IC50 in assay [15] was > 50 µM.
`Nc1nc2cc(-c3nn(CCCCCC(=O)NO)c4ncnc(N)c34)ccc2o1`: the inhibition in [1] was determined as 97.8%; in [6] it was 100%. Besides, the half-inhibitory concentration (IC50) in assay [2] came out at 15.4 µM; in assay [3], 21.5 µM; in assay [4], 37.6 µM; in assay [5] it was 34.2 µM; in [7], 3.08 µM; in [8] it was 1.99 µM. For the same compound, the IC50 in assay [9] was > 100 µM; in assay [10], 12.6 µM; in assay [11], 9.91 µM; in assay [12], 2.03 µM; in assay [13] it was > 50 µM; in [14] it was 19 µM. Moreover, the half-maximal inhibitory concentration (IC50) in [15] stood at 12.4 µM.
For the compound `Nc1ncnc2c1c(-c1cnc3[nH]ccc3c1)nn2CCCCCC(=O)NO`, the IC50 is > 150 µM in [2]; 63.7 µM in assay [3]; > 50 µM in [4]; > 50 µM in [5]; > 150 µM in assay [7]; 12.9 µM in [8]. For the same compound, the IC50 in assay [9] is > 150 µM; in assay [11], > 100 µM; in assay [13], > 150 µM; in assay [14] it was > 100 µM; in [15] it was > 150 µM.
For `Nc1nc2cc(-c3nn(CC(=O)NO)c4ncnc(N)c34)ccc2o1`, the IC50 is > 150 µM in assay [2]; 11.4 µM in [3]; 12.2 µM in [4]; > 150 µM in [8]; 27.7 µM in assay [9]; 6.31 µM in [14]. For the same compound, in [15], the IC50 was > 100 µM.
With `Nc1ncnc2c1c(-c1cnc3[nH]ccc3c1)nn2CCCCCCCCCC(=O)NO`, the inhibition is 98.3% in assay [1] and 97.6% in [6]. For the same compound, the IC50 in assay [2] turned out to be 7.56 µM; in assay [3] it was 18.7 µM; in assay [4] it was 2.2 µM; in assay [5] it was 17.2 µM; in [7], 23.5 µM; in assay [8], 11.7 µM. Besides, the 50% inhibitory concentration (IC50) in assay [9] was 6.55 µM; in assay [10], 8.16 µM; in [11], 10.1 µM; in [12], 42.1 µM; in assay [13] it was 34.2 µM; in [14], 10.1 µM. In [15], this compound registered a half-inhibitory concentration (IC50) of 23.2 µM.
`Nc1ncnc2c1c(-c1cnc3[nH]ccc3c1)nn2CCCC(=O)NO`: the half-inhibitory concentration (IC50) in [3] is > 150 µM; in [4] it was > 150 µM; in assay [8], > 50 µM; in assay [9] it was > 150 µM; in assay [14] it was > 150 µM; in assay [15], > 150 µM.
